Results as given in patent publication US6022880A, “Substituted pyridylamino indoles” (Hoechst Marion Roussel, Inc., priority 1997, dated 2000).
Where a name gives a salt, the structure may show the parent alone.

Tests used:
[1] = test system: mice (scopolamine induced memory deficit); assay: Dark Avoidance Assay (reversal of scopolamine induced memory deficit); assay type: in vivo, mouse; conditions: s.c.
Experimental: Dark Avoidance Assay In this assay mice are tested for their ability to remember an unpleasant stimulus for a period of 24 hours. A mouse is placed in a chamber that contains a dark compartment; a strong incandescent light drives it to the dark compartment, where an electric shock is administered through metal plates on the floor. The animal is removed from the testing apparatus and tested again, 24 hours later, for the ability to remember the electric shock. If scopolamine, an anticholinergic agent that is known to cause memory impairment, is administered before an animal's initial exposure to the test chamber, the animal re-enters the dark compartment shortly after being placed in the test chamber 24 hours later. This effect of scopolamine is blocked by an active test compound, resulting in a greater interval before re-entry into the dark compartment. The results for an active compound are expressed as the percent of a group of animals in which the effect of scopolamine is blocked, as manifested by an increased interval between being placed in the test chamber and re-entering the dark compartment.

[2] = test system: dopamine uptake, rat striatal synaptosomes; assay: Inhibition of 3H-Dopamine Uptake in Rat Striatal Synaptosomes; assay type: biochemical, rat (male Wistar); conditions: 3H-DA 50 nM, read-out: D: Inhibition of dopamine uptake, IC50
Experimental: (D) Inhibition of ^3 H-Dopamine Uptake in Rat Striatal Synaptosomes
This assay is used to show differential drug effects on dopamine uptake versus norepinephrine uptake and to identify therapeutic agents for diseases where the potentiation of dopaminergic activity may be helpful (e.g. Parkinson's Disease).
(§1) A. Animals: Male CR Wistar Rats (100-125 g).
The final desired concentration of ^3 H-DA in the assay is 50 nM. The dilution factor is 0.9. Therefore, the KHBB is made up to contain 55.5 nM [^3 H]-5DA.
5. For most assays, a 1 mM stock solution of the test compound is made up in a suitable solvent and serially diluted such that the final concentration in the assay ranges from 2×10^-8 to 2×10^-5 M. Seven concentrations are used for each assay. Higher or lower concentrations may be used depending on the potency of the compound.
(§2) Male Wistar rats are decapitated and the brain rapidly removed. Corpora striata are rapidly removed, weighed and homogenized in 9 volumes of ice-cold 0.32 M sucrose using a Potter-Elvejhem homogenizer. Homogenization should be done with 4-5 up and down strokes at medium speeds to minimize synaptosome lysis. The homogenate is centrifuged at 1000 g for 10 min. at 0-4° C. The supernatant (S1) is decanted and is used for uptake experiments.
(§3) Tubes are incubated at 37° C. under a 95% O2 /5% CO2 atmosphere for 5 minutes. For each assay, 3 tubes are incubated with 20 μl of vehicle at 0° C. in an ice bath. After incubation all tubes are immediately centrifuged at 4000 g for 10 minutes. The supernatant fluid is aspirated and the pellets dissolved by adding 1 ml of solubilizer (Triton X-100+50% EtOH, 1:4 v/v). The tubes are vigorously vortexed, decanted into scintillation vials, and counted in 10 ml of Liquiscint scintillation counting cocktail. Active uptake is the difference between cpm at 37° C. and 0° C. The percent inhibition at each drug concentration is the mean of three determinations. IC50 values are derived from log-probit analysis.

[3] = test system: serotonin uptake, rat whole brain synaptosomes; assay: Inhibition of [3H]-Serotonin Uptake in Rat Whole Brain Synaptosomes; assay type: biochemical, rat (male Wistar); conditions: [3H]-5HT 50 nM, read-out: C: Inhibition of serotonin uptake, IC50
Experimental: (C) Inhibition of [^3 H]-Serotonin Uptake in Rat Whole Brain Synaptosomes
as §1
The final desired concentration of ^3 H-5HT in the assay is 50 nM. The dilution factor is 0.8.
5. For most assays, a 1 mM solution of the test compound is made up in suitable solvent and serially diluted such that the final concentration in the assay ranges from 2×10^-8 to 2×10^-5 M. Seven concentrations are used for each assay.
as §2, with “Whole brain minus cerebella is” for “Corpora striata are rapidly removed,”
as §3, with “(Tritor.” for “(Triton”

[4] = test system: norepinephrine uptake, rat whole brain or hypothalamic synaptosomes; assay: Inhibition of [3H]-Norepinephrine Uptake in Rat Whole Brain or Hypothalamic Synaptosomes; assay type: biochemical, rat (male Wistar); conditions: [3H]-NE 50 nM, read-out: E: Inhibition of norepinephrine uptake, IC50
Experimental: (E) Inhibition of [^3 H]-Norepinephrine Uptake in Rat Whole Brain or Hypothalamic Synaptosomes
This assay is used as a biochemical screen for potential antidepressants which block norepinephrine uptake.
A. Animals: Male CR Wistar rats (100-125 g).
The final desired concentration of [^3 H]-NE in the assay is 50 nM. The dilution factor is 0.8.
5. For most assays, a 1 mM stock solution of the test compound is made up in a suitable solvent and serially diluted such that the final concentration in the assay ranges from 2×10^-8 to 2×10^-5 M. Seven concentrations are used for each assay.
as §2, with “Either whole brain minus cerebella or hypothalamus is” for “Corpora striata are rapidly removed,”
as §3

[5] = molecular target: T1, MAO-B (Rattus norvegicus, UniProt P19643); assay: biochemical; set-up: species or system rat (male Wistar, whole brain minus cerebellum); conditions: substrate [14C]-PEA 200 μM; read-out: Inhibitory Concentration - IC50 MAO-B
T1 sequence (P19643 1-520): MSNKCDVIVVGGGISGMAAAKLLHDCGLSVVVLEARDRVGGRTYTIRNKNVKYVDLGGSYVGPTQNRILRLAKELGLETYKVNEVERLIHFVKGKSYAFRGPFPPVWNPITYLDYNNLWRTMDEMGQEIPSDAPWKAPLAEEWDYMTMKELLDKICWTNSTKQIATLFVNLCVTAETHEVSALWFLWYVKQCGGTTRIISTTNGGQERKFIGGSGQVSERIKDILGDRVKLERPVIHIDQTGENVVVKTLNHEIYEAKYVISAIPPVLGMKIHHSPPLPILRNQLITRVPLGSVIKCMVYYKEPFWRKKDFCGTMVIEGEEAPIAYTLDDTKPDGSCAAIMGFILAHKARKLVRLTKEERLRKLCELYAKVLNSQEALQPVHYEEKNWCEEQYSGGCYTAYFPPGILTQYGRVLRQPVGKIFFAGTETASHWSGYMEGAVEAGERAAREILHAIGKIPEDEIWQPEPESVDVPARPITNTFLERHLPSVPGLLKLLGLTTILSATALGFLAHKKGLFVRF
Experimental: (§4) Inhibition of Type A and Type B Monoamine Oxidase Activity in Rat Brain Synaptosomes
a. β-phenethylamine (PEA) is obtained from Sigma Chemical Company. A 5 mM stock solution is made up in 0.01 N HCl. This is used to dilute the specific activity of the [^14 C]-PEA.
b. β-[ethyl-1-^14 C]-phenethylamine hydrochloride (40-50 mCi/mmol) is obtained from New England Nuclear.
Add 12 μl of [^14 C]-PEA to 2 ml of the 5 mM PEA solution. (Final amine concentration in the assay is 200 μM: see below.)
(§5) Equal amounts of MAO-A (5HT) and MAO-B (PEA) substrates are combined for simultaneously testing both MAO types, i.e. mixed stock solution of 2.5 mM 5HT and 2.5 mM PEA, 40 μl of this mixed solution gives a 200 μM final concentration of each amine in the assay. When testing only one MAO type, the individual 5 mM stock solutions must be diluted 1:1 with distilled water prior to adding 40 μl to the incubation mixture; i.e., same 200 μM final amine concentration.
(§6) Male Wistar rats weighing 150-250 grams were sacrificed and the brains rapidly removed. Whole brain minus cerebellum was homogenized in 30 volumes of ice-cold, phosphate-buffered 0.25 M sucrose, using a Potter-Elvejhem homogenizer. The homogenate was centrifuged at 1000 g for 10 minutes and the supernatant (S1) decanted and recentrifuged at 18,000 g for 20 minutes. The resulting pellet (p2) was resuspended in fresh 0.25 M sucrose and served as the tissue source for mitochondrial MAO.
(§7) Tubes are preincubated for 15 minutes at 37° C. and the assay is started by adding 40 μl of combined substrate ([^3 H]-5HT and [^14 C]-PEA) at 15 second intervals. The tubes are incubated for 30 minutes at 37° C. and the reaction stopped by the addition of 0.3 ml 2N HCl. Tissue blank values are determined by adding the acid before the radioactive substrate. The oxidative products of the reaction are extracted with ethyl acetate/toluene (1:1). 5 ml of this mixture is added to the tubes. The resultant mixture is vortexed for 15 seconds to extract the deaminated metabolites into the organic phase and the latter is allowed to separate from the aqueous phase. The tubes are placed in acetone/dry ice bath to freeze the aqueous layer. When this layer is frozen, the top organic layer is poured into a scintillation vial. 10 ml of Liquiscint is added and the samples are counted using window settings for ^14 C in one channel and ^3 H in the second channel. IC50 values are determined by log-probit analysis.

[6] = molecular target: T2, MAO-A (Rattus norvegicus, UniProt P21396); assay: biochemical; set-up: species or system rat (male Wistar, whole brain minus cerebellum); conditions: substrate [3H]-5HT 200 μM; read-out: Inhibitory Concentration - IC50 MAO-A
T2 sequence (P21396 1-526): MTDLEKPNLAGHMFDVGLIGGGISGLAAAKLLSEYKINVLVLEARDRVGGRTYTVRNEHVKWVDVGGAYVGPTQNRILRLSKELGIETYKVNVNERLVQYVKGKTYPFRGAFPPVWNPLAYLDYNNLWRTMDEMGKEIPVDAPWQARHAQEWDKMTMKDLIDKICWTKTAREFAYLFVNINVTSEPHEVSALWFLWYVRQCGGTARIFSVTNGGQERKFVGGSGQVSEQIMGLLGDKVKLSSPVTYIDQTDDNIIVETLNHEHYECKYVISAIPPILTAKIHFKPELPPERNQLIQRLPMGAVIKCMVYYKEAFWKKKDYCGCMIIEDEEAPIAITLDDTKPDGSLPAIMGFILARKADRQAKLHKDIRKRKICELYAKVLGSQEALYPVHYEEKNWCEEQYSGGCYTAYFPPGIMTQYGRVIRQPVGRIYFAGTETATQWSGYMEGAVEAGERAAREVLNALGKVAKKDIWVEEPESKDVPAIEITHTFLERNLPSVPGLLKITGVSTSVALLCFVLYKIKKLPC
Source text: as §4
To determine the selective inhibition of the two forms of monoamine oxidase (MAO).
Although various methods for measuring MAO activity are available, the described method involves the extraction of the radiolabeled deaminated metabolites of [^3 H]-5HT or [^14 C]-β-phenethylamine. This procedure allows MAO-A and MAO-B activities to be measured either simultaneously or individually (3).
Serotonin creatinine SO4 (5HT) is obtained from Sigma Chemical Company. A 5 mM stock solution is made up in 0.01 N HCl. This is used to dilute the specific activity of the [^3 H]-5HT.
[^3 H]-5-Hydroxytryptamine creatinine SO4 (20-30 Ci/mmol) is obtained from New England Nuclear.
Add 12 μl of [^3 H]-5HT to 2 ml of the 5 mM 5HT solution. (Final amine concentration in the assay is 200 μM: see below.)
as §5, §6, §7

**Q.** How did the “% of Animals with Scopolamine Induced Memory Deficit Reversal” value (shortened to “% of Animals”) ([1]; 1 mg/kg of body weight) turn out when `Cn1cc(Nc2ccncc2)c2ccccc21.O=C(O)/C=C/C(=O)O` [1-Methyl-3-(4-pyridinylamino)indole fumarate] was run?
**A.** Its value is 33%.

**Q.** And the “% of Animals” value ([1]; 3 mg/kg of body weight)?
**A.** Its value is 29%.

**Q.** What about the “% of Animals” value ([1]; 10 mg/kg of body weight) of the same compound?
**A.** Its value is 27%.

**Q.** How did the IC50 [2] turn out when `CN(c1ccncc1)c1cc2ccccc2s1` [2-(Methyl-4-pyridinylamino)benzo[b]thiophene hydrochloride] was run?
**A.** Its IC50 is 510 nM.

**Q.** And the IC50 [3]?
**A.** The IC50 was 1.15 µM.

**Q.** What about the IC50 [4] of the same compound?
**A.** Its IC50 is 78 nM.

**Q.** Which results are given for `CCCN(c1ccncc1)c1cc2ccccc2s1` [2-(Propyl-4-pyridinylamino)benzo[b]thiophene hydrochloride]?
**A.** IC50 [2]: 91 nM; IC50 [3]: 0.24 µM; IC50 [4]: 55 nM

**Q.** Which IC50 [5] does the source give for `FC(F)(F)c1ccc2c(Nc3ccncc3)csc2c1` [3-(4-Pyridinylamino)-6-trifluoromethylbenzo[b]thiophene hydrochloride] here?
**A.** Its IC50 is 165 µM.

**Q.** What about the IC50 [6] of the same compound?
**A.** The IC50 was 60 µM.

**Q.** How did the IC50 [5] turn out when `c1ccc2c(Nc3ccncc3)csc2c1` [3-(4-Pyridinylamino)benzo[b]thiophene hydrochloride] was run?
**A.** Its IC50 is 18 µM.

**Q.** What about the IC50 [6] of the same compound?
**A.** Its IC50 is 5.3 µM.

**Q.** With `O=C(O)/C=C\C(=O)O.c1ccc2c(Nc3ccncc3)c[nH]c2c1` [3-(4-pyridinylamino)-1H-indole maleate, 3-(4-Pyridinylamino)-1H-indole maleate] as the compound, how does the “% of Animals” value ([1]; 10 mg/kg of body weight) read?
**A.** Its value is 70%.

**Q.** `c1ccc2c(Nc3ccncc3)noc2c1` [3-[(4-pyridinyl)amino]-1,2-benzisoxazole] was tested. Which IC50 [5] did it give?
**A.** The IC50 was 3.9 µM.

**Q.** What about the IC50 [6] of the same compound?
**A.** The IC50 was 0.64 µM.

**Q.** Which results are given for `Clc1ccc2c(Nc3ccncc3)c[nH]c2c1` [6-Chloro-3-(4-pyridinylamino)-1H-indole, 6-Chloro-3(4-pyridinylamino)indole]?
**A.** % of Animals with Scopolamine Induced Memory Deficit Reversal ([1]; 1 mg/kg of body weight): 27%; % of Animals with Scopolamine Induced Memory Deficit Reversal ([1]; 3 mg/kg of body weight): 20%; % of Animals with Scopolamine Induced Memory Deficit Reversal ([1]; 10 mg/kg of body weight): 27%

**Q.** Which IC50 [5] does the source give for `Clc1ccc2c(Nc3ccncc3)csc2c1` [6-Chloro-3-(4-pyridinylamino)benzo[b]thiophene hydrochloride] here?
**A.** Its IC50 is 51 µM.

**Q.** What about the IC50 [6] of the same compound?
**A.** The IC50 was 10.5 µM.

**Q.** Which IC50 [3] does the source give for `C=CCN(c1ccncc1)c1csc2cc(Cl)ccc12` [6-Chloro-3-[(2-propenyl)(4-pyridinyl)amino]benzo[b]thiophen hydrochloride] here?
**A.** Its IC50 is 0.12 µM.

**Q.** What about the IC50 [4] of the same compound?
**A.** Its IC50 is 7 nM.

**Q.** How did the IC50 [5] turn out when `Clc1ccc2c(Nc3ccncc3)noc2c1` [6-Chloro-3-[(4-pyridinyl)amino]-1,2-benzisoxazole maleate] was run?
**A.** The IC50 was 51 µM.

**Q.** What about the IC50 [6] of the same compound?
**A.** The IC50 was 2.8 µM.

**Q.** For `Clc1ccc2c(N(CC3CC3)c3ccncc3)csc2c1` [6-Chloro-3-[(cyclopropylmethyl)(4-pyridyl)amino]benzo[b]thiophen hydrochloride], which IC50 [3] is on record?
**A.** The IC50 was 0.12 µM.

**Q.** And the IC50 [4]?
**A.** Its IC50 is 12 nM.

**Q.** For `COc1ccc2c(Nc3ccncc3)csc2c1` [6-Methoxy-3(4-pyridinylamino)benzo[b]thiophene hydrochloride], which IC50 [5] is on record?
**A.** Its IC50 is 17 µM.

**Q.** And the IC50 [6]?
**A.** Its IC50 is 3.2 µM.

**Q.** How did the IC50 [5] turn out when `CCCN(c1ccncc1)c1csc2cc(OC)ccc12` [6-Methoxy-3-(propyl-4-pyridinylamino)benzo[b]thiophene hydrochloride] was run?
**A.** Its IC50 is 205 µM.

**Q.** And the IC50 [6]?
**A.** The IC50 was 182 µM.

**Q.** With `CN(C)CCC=C1c2ccccc2CCc2ccccc21` [Amitriptyline, reference compound] as the compound, how does the IC50 [2] read?
**A.** The IC50 was > 20000 nM.

**Q.** And the IC50 [4]?
**A.** Its IC50 is 7700 nM.

**Q.** For `O=C1CC2(CCCC2)CC(=O)N1CCCCN1CCN(c2ncccn2)CC1` [Buspirone], which IC50 [2] is on record?
**A.** Its IC50 is > 20000 nM.

**Q.** What does the source list for `CN(C)CCCN1c2ccccc2CCc2ccc(Cl)cc21` [Chloripramine, reference compound]?
**A.** IC50 [2]: > 20000 nM; IC50 [4]: 18600 nM

**Q.** For `CN1CCN(C2=Nc3cc(Cl)ccc3Nc3ccccc32)CC1` [Clozapine, reference compound], which IC50 [2] is on record?
**A.** Its IC50 is > 20000 nM.

**Q.** What about the IC50 [4] of the same compound?
**A.** The IC50 was > 20000 nM.

**Q.** `CC[C@@H]1C(=O)OC[C@@H]1Cc1cncn1C` [Pilocarpine, reference compound] was tested. Which “% of Animals” value ([1]; 5.0 mg/kg of body weight) did it give?
**A.** Its value is 13%.

**Q.** With `Nc1c2c(nc3ccccc13)CCCC2` [Tacrine, reference compound] as the compound, how does the “% of Animals” value ([1]; 0.63 mg/kg of body weight) read?
**A.** Its value is 13%.
